From patent US20260345654A1, “2,8-DIHYDROXYQUINOLINE GLUCURONIDE DERIVATIVES WITH ENHANCED PROPERTIES FOR USE AS ANTICANCER, ANTIVIRAL, ANTIMICROBIAL, AND OTHER THERAPEUTIC APPLICATIONS” (priority 2023, published 2026)
pIC50: −log10 of the molar value. “Also recorded” adds a separate entry of the source. Like-named read-outs stand apart in the source and are kept apart here.

How the values were obtained:
[1] = test system: basal cell and squamous cell cancer; assay: Case studies overview, topical W1469; format: in vivo, human
Protocol: (§1) Topical gel containing 0.5 mg/ml W1469 in proprietary aqueous alcohol gel, applied initially once daily using a suitable topical applicator.
(§2) In general, the Treatment/Patient protocol used for the patient testing was as follows: • 1. Photograph the application site prior to starting the protocol. Note any changes in lesion size, color, etc. of treatment area. • 2. Remove a loaded syringe from the freezer, dry ice or refrigerator and allow to gradually warm to room temperature. • 3. Photograph the syringe each time prior to application. Note the color of the gel contained in the syringe. • 4. Lightly clean the skin surface with alcohol wipe. • 5. […] Let the liquid from the gel absorb into the site without disturbing. Apply once a day at the same time. • 6. Re-cap the syringe and store in the refrigerator until completely used. • 7. Repeat 1-6 each daily during application period. It is noted in this protocol that photographing the syringe used with each application period accomplishes two things.
• 1. Toleration/toxicity • 2. Application methodology • 3. Any visual indications of efficacy • 4. Patient feedback Study Duration: Varied case by case. Generally, two weeks to two months

[2] = test system: DU-145 cells; assay: In vitro anti-proliferation (CellTiter-Glo, 72 hr), DU-145; format: cell-based, human
Protocol: (§3) Commercially available 8HQ and freshly synthesized G2-8HQ were prepared for in vitro anti-proliferative studies against the following cell lines with and without the presence of 10 μM Cu(+2): (1) A549: […]; (2) BT-549: epithelial cells from ductal tumor; (3) DU-145: human prostate cancer; (4) PANC-1: pancreatic cancer; (5) SU.86.86: a new adoptive pancreatic cell for immunotherapy studies; (6) RL: non-Hodgkin's lymphoma; (7) LnCAP, Prostate cancer cell line; (8) A431, a squamous cell carcinoma line; and (9) UACC-62 a malignant melanoma cell line.
(§4) With regard to the study protocol used, the objective was to conduct a study of the cytotoxicity of W1469 against several cancer cell lines. In the study protocol, preparations for the A549 (Lung) cell line screen are given as an example. The following materials were used: (1) FBS (2) RPMI-1640 medium supplemented with 10% FBS:’ and (3) A549 Cells. The four samples tested are referred to as Items 1-4 below and were placed at 4 °C upon arrival. These four samples were as follows: • Item 1: Tube A (W1469) (500 uM when FBS added) • Item 2: Tube B (W1469g) (1000 uM when FBS added) • Item 3: Tube C (W1469) • Item 4: Tube D (W1469g)
(§5) Add 50 μL of above 2× stocks to appropriate wells to expose appropriate cells to the final dilutions of samples. Add 50 μL media to media and cell control wells and 50 μL media mix to vehicle control wells. Cells are exposed for 72 hr. Following a 72 hr exposure to Sample, perform a CTG assay on all remaining plates.
(§6) At the end of the 72 hr exposure period, remove plates for CellTiter-Glo assay from 37 °C, 5% CO2 incubator and place on the bench at room temperature for 30 mins. Add 100 μL CellTiter-Glo reagent, mix for 2 mins, followed by a further 10 min incubation at room temperature. Record luminescence. Tables showing the resulting plate layouts are included below/

[3] = test system: PANC-1 cells; assay: In vitro anti-proliferation (CellTiter-Glo, 72 hr), PANC-1; format: cell-based
Protocol: as §3, §4, §5, §6

[4] = test system: RL cells; assay: In vitro anti-proliferation (CellTiter-Glo, 72 hr), RL; format: cell-based
Protocol: as §3, §4, §5, §6

[5] = test system: LnCAP cells; assay: In vitro anti-proliferation (CellTiter-Glo, 72 hr), LnCAP; format: cell-based
Protocol: as §3, §4, §5, §6
(§7) The other cancer cell lines tested gave similar results. […] Three additional cell lines were also studied and described more completely in Example 9 provided herein. These cell lines included cytotoxicity testing of WT1469 (G2-8HQ) against LnCAP a prostate cancer, A431 a squamous carcinoma cell line and UACC-62 a malignant melanoma cell line. All were complexed in situ with copper immediately prior to testing. The results from these additional cell lines and incorporated in Table 2 and Example 9.

[6] = test system: SU.86.86 cells; assay: In vitro anti-proliferation (CellTiter-Glo, 72 hr), SU.86.86; format: cell-based
Protocol: as §3, §4, §5, §6

[7] = Chemical stability; format: physicochemical
[8] = test system: squamous cell carcinoma; assay: Case study, topical W1469, squamous cell carcinoma (Individual 4); format: in vivo, human
Protocol: as §1, §2
Physician administered, variable treatment protocol, drug concentrations and vehicle carrier. A person with 2 mm ulcerative lesion (squamous cell carcinoma) to the post-auricular area of left side of the head. The lesion area had been biopsied and treated with cryotherapy one year prior. Lesion area had begun to reappear 3 months prior to this photo. After three days of once daily treatment, the same lesion was already reduced to approximately ½ of original size. […] Note: Subject's initial dosing schedule was once daily. […] Upon next visit (three days after initial dosing) […] dose was doubled while maintaining a once daily schedule. Over the next three days their lesion resolved completely and without any adverse reactions noted.

[9] = test system: A431 cells; assay: In vitro anti-proliferation (CellTiter-Glo, 72 hr), A431; format: cell-based
Protocol: as §3, §4, §5, §6, §7

[10] = Complexation of copper; format: physicochemical
[11] = test system: UACC-62 cells; assay: In vitro anti-proliferation (CellTiter-Glo, 72 hr), UACC-62; format: cell-based
Protocol: as §3, §4, §5, §6, §7

[12] = 1 and 0.5 μM, presence of Cu^+2 ions, wide standard deviation
[13] = +Cu (10 μM), 72 hr, G2-8HQ values based on MW of apo form (337), read-out: IC50
[14] = complexed with Cu, multiplied by 337/776=0.43, column 3 duplicate of column 2, listed as W1469, read-out: IC50 (adjusted to MW of copper complex)
[15] = complexed with Cu in situ, * differences with or without excipient, suboptimal complexing, listed as W1469, read-out: IC50 (adjusted to MW of copper complex)
[16] = +Cu, complexed in situ with copper immediately prior to testing, not based on apo MW, read-out: IC50

In the case of O=C(O)[C@H]1O[C@@H](Oc2ccc3cccc(O)c3n2)[C@H](O)[C@@H](O)[C@@H]1O [G2-8HQ, 8-Hydroxy-2-quinolinyl beta-D-glucopyranosiduronic acid], the Side Effects ([1]; all 4 case studies) was “No side effects were noted”, the “appearance of skin surrounding the cancer lesion(s)” value ([1]; all 4 case studies) was “Marked improvements in general appearance of skin surrounding the cancer lesion(s)” and the cancer lesion size ([1]; all 4 case studies) was “Progressive reduction of cancer lesion size”. The dose dependency ([1]; all 4 case studies) was “higher concentrations work better”, the “effect on adjacent tissue” value ([1]; all 4 case studies) was “Doesn't inflame or injure adjacent tissue” and the “pain of treatment and application” value ([1]; all 4 case studies) was “not painful”. The “time to rapid elimination of pain and visible inflammation” value ([1]; all 4 case studies) was 2 to 5 days, the toxicity ([1]; topical gel 0.5 mg/ml, once daily initially) was “no toxicity was observed” and the cytotoxicity [2, 12] was “in some percentage of the screens all the cancer cells were killed at these concentrations”. The pIC50 [2, 13] was 5.06, the pIC50 ([2]; Homo sapiens, DU-145, 72 h, +Cu (10 μM), 72 hr, G2-8HQ values based on MW of apo form (337), read-out: IC50) was 5.14 and the pIC50 ([2]; Homo sapiens, DU-145, 72 h, −Cu, 72 hr, read-out: IC50) was < 3.30. The pIC50 ([2]; Homo sapiens, DU-145, complexed with Cu, multiplied by 337/776=0.43, column 3 duplicate of column 2, read-out: IC50 (adjusted to MW of copper complex)) was 5.51, the pIC50 [2, 14] was 5.43 and the cytotoxicity [3, 12] was “at least some of the screens reflected that all the cancer cells were killed at these concentrations; also recorded: in some % of the screens all the cancer cells were killed at these concentrations”. For the same compound, the pIC50 ([3]; Homo sapiens, PANC-1, 72 h, −Cu, 72 hr) was < 3.30, the cytotoxicity [4, 12] was “in a percentage of cases, all of the cancer cells were killed at concentrations between at 1 and 0.5 μM; also recorded: in some % of the screens all the cancer cells were killed at these concentrations” and the pIC50 [4, 13] was 6.33. For the same compound, the pIC50 ([4]; Homo sapiens, RL, 72 h, +Cu (10 μM), 72 hr, G2-8HQ values based on MW of apo form (337), read-out: IC50) was 6.33, the pIC50 ([4]; Homo sapiens, RL, 72 h, −Cu, 72 hr, read-out: IC50) was < 3.30 and the pIC50 ([4]; Homo sapiens, RL, complexed with Cu, multiplied by 337/776=0.43, read-out: IC50 (adjusted to MW of copper complex)) was 6.70. It also gave a pIC50 ([5]; +Cu, complexed in situ with copper immediately prior to testing, apo MW (337), read-out: IC50) of 3.81, a pIC50 ([5]; Homo sapiens, LNCaP, +Cu, complexed in situ with copper immediately prior to testing, apo MW (337), read-out: IC50) of 3.96 and a pIC50 ([5]; Homo sapiens, LNCaP, complexed with Cu in situ, * differences with or without excipient, suboptimal complexing, read-out: IC50 (adjusted to MW of copper complex)) of 4.33. The pIC50 [5, 15] was 4.18, the cytotoxicity [6, 12] was “in a percentage of cases, all of the cancer cells were killed at concentrations between at 1 and 0.5 μM; also recorded: in some % of the screens all the cancer cells were killed at these concentrations” and the pIC50 [6, 13] was 4.89. For the same compound, the pIC50 ([6]; Homo sapiens, SU.86.86, 72 h, +Cu (10 μM), 72 hr, G2-8HQ values based on MW of apo form (337), read-out: IC50) was 5.00, the pIC50 ([6]; Homo sapiens, SU.86.86, 72 h, −Cu, 72 hr, read-out: IC50) was < 3.30 and the pIC50 ([6]; Homo sapiens, SU.86.86, complexed with Cu, multiplied by 337/776=0.43, column 3 duplicate of column 2, read-out: IC50 (adjusted to MW of copper complex)) was 5.37. For the same compound, the pIC50 [6, 14] was 5.25, the stability ([7]; aqueous solutions, pH values lower than 8, or over time in organic solvents) was “less stable” and the stability ([7]; dissolving in DMSO (without copper)) was “yields over time the precipitated degradation product of the keto form of 2-8HQ”. For the same compound, the stability ([7]; neutral or physiological pH in the plasma) was “chemically stable”, the stability ([7]; pH of 5) was “degrade the compound almost immediately” and the “lesion size (fraction of original size)” value ([8]; Individual 4, after three days of once daily treatment) was “approximately ½”. For the same compound, the adverse reactions ([8]; Individual 4, once daily, dose doubled after three days) was “no adverse reactions”, the lesion resolution ([8]; Individual 4, regular treatment for one week) was “complete resolution of the patient's lesion” and the pIC50 [9, 16] was 4.07. It also gave a pIC50 ([9]; Homo sapiens, A-431, +Cu, complexed in situ with copper immediately prior to testing, not based on apo MW, read-out: IC50) of 4.19, a pIC50 ([9]; Homo sapiens, A-431, complexed with Cu in situ, * differences with or without excipient, suboptimal complexing, read-out: IC50 (adjusted to MW of copper complex)) of 4.20 and a pIC50 [9, 15] of 4.08. For the same compound, the Complexes w/copper ([10]; comparison Table 5) was “Yes”, the copper complexation ([10]; water or PBS (at neutral pH), without suitable excipient) was “will not readily complex Cu^+2” and the pIC50 [11, 16] was 3.77. It also gave a pIC50 ([11]; Homo sapiens, UACC-62, +Cu, complexed in situ with copper immediately prior to testing, not based on apo MW, read-out: IC50) of 3.81, a pIC50 ([11]; Homo sapiens, UACC-62, complexed with Cu in situ, * differences with or without excipient, suboptimal complexing, read-out: IC50 (adjusted to MW of copper complex)) of 3.82 and a pIC50 [11, 15] of 3.78.
